One block for each molecule: values may come before it.
Experiments:
Type in all cases: cell-based
[1] = target: T1, Ba/F3 BCR-ABL1 T315M (Homo sapiens, UniProt P00519+P11274, T315M); test: Cell growth inhibitory activity assay (CellTiter-Glo), Ba/F3 BCR-ABL1 T315M cells; settings: 72 h, CTG cell viability
T1 construct: BCR (N-terminal fusion partner of the oncoprotein); expressed in transfected cells; host or cells: Ba/F3 (lentiviral transduction, monoclonal line)
Protocol: (§1) In this assay, the Celltiter-Glo (CTG) kit provided by Promega was used, and it is a homogeneous cell viability assay method. The cell viability of cultured cells was measured by quantifying ATP. K562 cells were purchased from Nanjing Kebai, product number CBP60529; Ba/F3 parental cells were purchased from RIKEN BRC, product number RCB0805; other cells containing BCR-ABL1 WT, BCR-ABL1 T315I, BCR-ABL1 T315M, BCR-ABL1 Y253H/E255K, BCR-ABL1 E255V/T3151, BCR-ABL1 A424T, BCR-ABL1 A337V, BCR-ABL1 P465S, BCR-ABL1 V468F, and BCR-ABL1 I502L were all monoclonal engineered cell lines obtained by transducting Ba/F3 parental cells with the lentivirus plasmids containing WT or corresponding mutated BCR-ABL1.
(§2) The steps of cell viability assay are as follows: • a) Cells in logarithmic growth phase were collected. Cell suspension was prepared and the cells were counted. Concentration of the cells was calculated. • b) The cell suspension was diluted to the required concentration and then added to the middle wells of a 96-well plate, and PBS was added to the edge wells. The wells with no cells and only culture medium were used as blank controls. • c) In addition to the cell plate used for compound analysis, another 96-well plate was prepared as a T0 plate, and 3-6 blank wells and 3-6 cell wells were added. The next day, CTG was used to test the cell viability as the T0 viability value of the cells. • d) The cell plate was incubated at 37 °C in a 5% CO2 incubator overnight. • e) The next day, each concentration of a compound subjected to a gradient dilution was added, and the cell plate was incubated at 37 °C in a 5% CO2 incubator for 72 h. The wells with no compound and only 0.5% DMSO were used as positive controls for cell growth. • f) CTG reagent (CellTiter-Glo kit) was added according to the manufacturer's instructions to test the cell viability value. • g) The plate was read using Biotek cytation3.0 microplate reader and the data were exported. • h) IC50 was calculated using GraphPad Prism 7.0 software.
(§3) The IC50 (half-maximal inhibitory concentration) of the compound was obtained using the following nonlinear fitting formula: Y = Bottom + (Top−Bottom)/(1+10^(∧)((LogIC50−X)*HillSlope)) [formula] • X: Log value of the compound concentration • Y: Inhibition rate (% inhibition) • Top: Maximum response • Bottom: Baseline response • HillSlope: Slope of the curve
(§4) The formula for calculating cell inhibition rate (inhibition rate %) was: [formula]

[2] = target: T2, Ba/F3 BCR-ABL1 V468F (Homo sapiens, UniProt P00519+P11274, V468F); test: Cell growth inhibitory activity assay (CellTiter-Glo), Ba/F3 BCR-ABL1 V468F cells; settings: 72 h, CTG cell viability
T2 construct: BCR (N-terminal fusion partner of the oncoprotein); expressed in transfected cells; host or cells: Ba/F3 (lentiviral transduction, monoclonal line)
Protocol: as §1, §2, §3, §4

[3] = tested on: Ba/F3 parental cells; test: Cell growth inhibitory activity assay (CellTiter-Glo), Ba/F3 parental cells; settings: Mus musculus, BaF3, 72 h, CTG cell viability, read-out: IC50 Ba/F3 BCR-ABL1 Parental
How it was run: (§5)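 Ba/F3 lines stably transduced by lentivirus with WT or mutant BCR-ABL1, alongside untransduced parental Ba/F3, were seeded and incubated overnight at 37 °C, 5% CO2, then exposed to serially diluted compound for 72 h. Viability was read as ATP by CellTiter-Glo luminescence against a day-of-dosing T0 plate; IC50 from four-parameter nonlinear fit.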

[4] = target: T3, Ba/F3 BCR-ABL1 I502L (Homo sapiens, UniProt P00519+P11274, I502L); test: Cell growth inhibitory activity assay (CellTiter-Glo), Ba/F3 BCR-ABL1 I502L cells; settings: 72 h, CTG cell viability
T3 construct: BCR (N-terminal fusion partner of the oncoprotein); expressed in transfected cells; host or cells: Ba/F3 (lentiviral transduction, monoclonal line)
Protocol: as §1, §2, §3, §4

[5] = target: T4, Ba/F3 BCR-ABL1 WT (Homo sapiens, UniProt P00519+P11274); test: Cell growth inhibitory activity assay (CellTiter-Glo), Ba/F3 BCR-ABL1 WT cells; settings: 72 h, CTG cell viability
T4 construct: BCR (N-terminal fusion partner of the oncoprotein); expressed in transfected cells; host or cells: Ba/F3 (lentiviral transduction, monoclonal line)
How it was run: as §5

[6] = target: T5, Ba/F3 BCR-ABL1 E255V/T315I (Homo sapiens, UniProt P00519+P11274, E255V/T315I); test: Cell growth inhibitory activity assay (CellTiter-Glo), Ba/F3 BCR-ABL1 E255V/T315I cells; settings: 72 h, CTG cell viability
T5 construct: BCR (N-terminal fusion partner of the oncoprotein); expressed in transfected cells; host or cells: Ba/F3 (lentiviral transduction, monoclonal line)
Protocol: as §1, §2, §3, §4

[7] = tested on: K562 cells; test: Cell growth inhibitory activity assay (CellTiter-Glo), K562 cells; settings: Homo sapiens, 72 h, CTG cell viability
How it was run: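 Growth inhibition of human K562 cells, sourced from Nanjing Kebai (CBP60529), was assessed with Promega's CellTiter-Glo kit, which measures viability through ATP quantification. Log-phase cells went into the inner wells of 96-well plates, with PBS in edge wells, incubated overnight at 37 °C and 5% CO2, then exposed to serially diluted compound for 72 h.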

[8] = target: T6, Ba/F3 BCR-ABL1 A337V (Homo sapiens, UniProt P00519+P11274, A337V); test: Cell growth inhibitory activity assay (CellTiter-Glo), Ba/F3 BCR-ABL1 A337V cells; settings: 72 h, CTG cell viability
T6 construct: BCR (N-terminal fusion partner of the oncoprotein); expressed in transfected cells; host or cells: Ba/F3 (lentiviral transduction, monoclonal line)
Protocol: as §1, §2, §3, §4

[9] = target: T7, Ba/F3 BCR-ABL1 A424T (Homo sapiens, UniProt P00519+P11274, A424T); test: Cell growth inhibitory activity assay (CellTiter-Glo), Ba/F3 BCR-ABL1 A424T cells; settings: 72 h, CTG cell viability
T7 construct: BCR (N-terminal fusion partner of the oncoprotein); expressed in transfected cells; host or cells: Ba/F3 (lentiviral transduction, monoclonal line)
Protocol: as §1, §2, §3, §4

[10] = target: T8, Ba/F3 BCR-ABL1 T315I (Homo sapiens, UniProt P00519+P11274, T315I); test: Cell growth inhibitory activity assay (CellTiter-Glo), Ba/F3 BCR-ABL1 T315I cells; settings: 72 h, CTG cell viability
T8 construct: BCR (N-terminal fusion partner of the oncoprotein); expressed in transfected cells; host or cells: Ba/F3 (lentiviral transduction, monoclonal line)
How it was run: as §5

[11] = target: T9, Ba/F3 BCR-ABL1 P465S (Homo sapiens, UniProt P00519+P11274, P465S); test: Cell growth inhibitory activity assay (CellTiter-Glo), Ba/F3 BCR-ABL1 P465S cells; settings: 72 h, CTG cell viability
T9 construct: BCR (N-terminal fusion partner of the oncoprotein); expressed in transfected cells; host or cells: Ba/F3 (lentiviral transduction, monoclonal line)
Protocol: as §1, §2, §3, §4

[12] = target: T10, Ba/F3 BCR-ABL1 Y253H/E255K (Homo sapiens, UniProt P00519+P11274, E255K/Y253H); test: Cell growth inhibitory activity assay (CellTiter-Glo), Ba/F3 BCR-ABL1 Y253H/E255K cells; settings: 72 h, CTG cell viability
T10 construct: BCR (N-terminal fusion partner of the oncoprotein); expressed in transfected cells; host or cells: Ba/F3 (lentiviral transduction, monoclonal line)
Protocol: as §1, §2, §3, §4

SMILES: C[C@@H]1COCc2nc3cc(C(=O)Nc4ccc(OC(F)(F)Cl)cc4)cc(-c4cnc5c(c4)-c4nn(-c6ccccn6)cc4C5)c3n21 [T-4]
IC50 [1]: > 1000 nM
IC50 [2]: 50 to 1000 nM
IC50 [3]: > 1000 nM
IC50 [4]: 5 to 50 nM
IC50 [5]: ≤ 5 nM
IC50 [6]: 5 to 50 nM
IC50 [7]: ≤ 5 nM
IC50 [8]: 50 to 1000 nM
IC50 [9]: 5 to 50 nM
IC50 [10]: ≤ 5 nM
IC50 [11]: 50 to 1000 nM
IC50 [12]: ≤ 5 nM

SMILES: CC(=O)NC1CCC2c3cc(C(=O)Nc4ccc(OC(F)(F)Cl)cc4)cc(-c4cnc5c(c4)C(=O)N(C)C5)c3N(C(C)C)C12 (racemic) [T-11, 3-acetamido-N-(4-(chlorodifluoromethoxy)phenyl)-4-isopropyl-5-(6-methyl-5-oxo-6,7-dihydro-5H-pyrrolo[3,4-b]pyridin-3-yl)-1,2,3,3a,4,8b-hexahydrocyclopenta[b]indole-7-carboxamide]
IC50 [1]: > 1000 nM
IC50 [2]: > 1000 nM
IC50 [3]: > 1000 nM
IC50 [5]: ≤ 5 nM
IC50 [6]: 50 to 1000 nM
IC50 [7]: ≤ 5 nM
IC50 [9]: 50 to 1000 nM
IC50 [10]: 50 to 1000 nM
IC50 [12]: 50 to 1000 nM

More lines, main results first:

IC50 [7]: ≤ 5 nM
SMILES: C[C@@H]1COCc2nc3cc(C(=O)Nc4ccc(OC(F)(F)Cl)cc4)cc(-c4cnc5c(c4)-c4nn(C6CC6)cc4C5)c3n21 [T-57, (R)-N-(4-(chlorodifluoromethoxy)phenyl)-6-(2-cyclopropyl-2,4-dihydropyrazolo[3',4':3,4]cyclopenta[1,2-b]pyridin-7-yl)-4-methyl-3,4-dihydro-1H-benzo[4,5]imidazo[2,1-c][1,4]oxazine-8-carboxamide]
IC50 [1]: > 1000 nM
IC50 [2]: 5 to 50 nM
IC50 [3]: > 1000 nM
IC50 [4]: 5 to 50 nM
IC50 [5]: ≤ 5 nM
IC50 [6]: ≤ 5 nM
IC50 [8]: 5 to 50 nM
IC50 [9]: 5 to 50 nM
IC50 [10]: ≤ 5 nM
IC50 [11]: 50 to 1000 nM
IC50 [12]: 5 to 50 nM

IC50 [7]: ≤ 5 nM
SMILES: CCn1cc2c(n1)-c1cc(-c3cc(C(=O)Nc4ccc(OC(F)(F)Cl)cc4)cc4nc5n(c34)[C@H](C)COC5)cnc1C2 [T-18, (R)-N-(4-(chlorodifluoromethoxy)phenyl)-6-(2-ethyl-2,4-dihydropyrazolo[3',4':3,4]cyclopenta[1,2-b]pyridin-7-yl)-4-methyl-3,4-dihydro-1H-benzo[4,5]imidazo[2,1-c][1,4]oxazine-8-carboxamide]
IC50 [1]: > 1000 nM
IC50 [2]: 5 to 50 nM
IC50 [3]: > 1000 nM
IC50 [4]: 5 to 50 nM
IC50 [5]: ≤ 5 nM
IC50 [6]: ≤ 5 nM
IC50 [8]: 5 to 50 nM
IC50 [9]: 5 to 50 nM
IC50 [10]: ≤ 5 nM
IC50 [11]: 5 to 50 nM
IC50 [12]: ≤ 5 nM

IC50 [7]: ≤ 5 nM
SMILES: C[C@@H]1COCc2nc3cc(C(=O)Nc4ccc(OC(F)(F)Cl)cc4)cc(-c4cnc5c(c4)C(=O)N(C)C5)c3n21 [T-21, (R)-N-(4-(chlorodifluoromethoxy)phenyl)-4-methyl-6-(6-methyl-5-oxo-6,7-dihydro-5H-pyrrolo[3,4-b]pyridin-3-yl)-3,4-dihydro-1H-benzo[4,5]imidazo[2,1-c][1,4]oxazine-8-carboxamide]
IC50 [1]: > 1000 nM
IC50 [2]: 50 to 1000 nM
IC50 [3]: > 1000 nM
IC50 [4]: 5 to 50 nM
IC50 [5]: ≤ 5 nM
IC50 [6]: 5 to 50 nM
IC50 [8]: 50 to 1000 nM
IC50 [9]: 50 to 1000 nM
IC50 [10]: 5 to 50 nM
IC50 [11]: 50 to 1000 nM
IC50 [12]: 5 to 50 nM

— patent EP4768484A1, “HETEROCYCLIC FUSED RING COMPOUND, AND COMPOSITION AND USE THEREOF” (Shenzhen TargetRx, Inc., priority 2023, dated 2025)
